Test results reported in ChEMBL document CHEMBL5236572, “Bioactive Aurones, Indanones, and Other Hemiindigoid Scaffolds: Medicinal Chemistry and Photopharmacology Perspectives” (J Med Chem, 2022).
In brackets after ≈: the same amount, converted by molar mass.

Tests used:
Schistosoma mansoni = assay: Antischistosomal activity against adult stage of Schistosoma mansoni assessed assessed as inhibition of parasite death; assay type: functional, organism-based
[1] = Cytotoxicity against mouse Peritoneal macrophage; assay type: toxicity, cell-based; details: peritoneal macrophages
[2] = Binding affinity to Helicobacter pylori HTRA by SPR analysis
Acetylcholinesterase = Acetylcholinesterase (Electrophorus electricus, UniProt O42275); assay: Inhibition of electric eel AChE using acetylthiocholine iodide as substrate preincubated for 5 mins followed by substrate addition by spectrophotometric Ellman's method
[3] = Inhibition of equine serum BuChE using butyrylthiocholine iodide as substrate preincubated for 5 mins followed by substrate addition by spectrophotometric Ellman's method
[4] = Selectivity index, ratio of IC50 for inhibition of electric eel AChE to IC50 for inhibition of equine serum BuChE
Pseudomonas aeruginosa = assay: Antimicrobial activity against Pseudomonas aeruginosa MTCC 1688 assessed as bacterial growth inhibition by broth microdilution method; assay type: functional
[5] = test system: Mycobacterium tuberculosis; assay: Antimicrobial activity against Mycobacterium tuberculosis H37Rv assessed as reduction in bacterial growth incubated for 7 days by broth micro dilution method; assay type: functional; details: 168 h, time 7 day
[6] = Cytotoxicity against human HEK293T cells; assay type: toxicity, cell-based, HEK-293T
Leishmania major [7] = assay: Antileishmanial activity against promastigote stage Leishmania major MHOM/JL/80/Friedlin overexpressing ABCI4 infected in human THP-1 cells assessed as reduction in parasite growth incubated for 72 hrs by MTT assay; assay type: functional, organism-based; details: THP-1, 72 h
THP-1 = assay: Cytotoxicity against human THP-1 cells assessed as reduction in cell viability incubated for 72 hrs by MTT assay; assay type: functional, cell-based; details: THP-1, 72 h
Leishmania major [8] = assay: Antileishmanial activity against promastigote stage Leishmania major MHOM/JL/80/Friedlin overexpressing ABCI4 infected in human THP-1 cells assessed as fold change in reduction in parasite growth incubated for 72 hrs in presence of SbIII by MTT assay; assay type: functional
[9] = target: T1, Amine oxidase [flavin-containing] A (Homo sapiens, UniProt P21397); assay: Inhibition of recombinant human MAO-A using p-tyramine as substrate by Amplex-Red MAO assay
T1 sequence (P21397 whole entry): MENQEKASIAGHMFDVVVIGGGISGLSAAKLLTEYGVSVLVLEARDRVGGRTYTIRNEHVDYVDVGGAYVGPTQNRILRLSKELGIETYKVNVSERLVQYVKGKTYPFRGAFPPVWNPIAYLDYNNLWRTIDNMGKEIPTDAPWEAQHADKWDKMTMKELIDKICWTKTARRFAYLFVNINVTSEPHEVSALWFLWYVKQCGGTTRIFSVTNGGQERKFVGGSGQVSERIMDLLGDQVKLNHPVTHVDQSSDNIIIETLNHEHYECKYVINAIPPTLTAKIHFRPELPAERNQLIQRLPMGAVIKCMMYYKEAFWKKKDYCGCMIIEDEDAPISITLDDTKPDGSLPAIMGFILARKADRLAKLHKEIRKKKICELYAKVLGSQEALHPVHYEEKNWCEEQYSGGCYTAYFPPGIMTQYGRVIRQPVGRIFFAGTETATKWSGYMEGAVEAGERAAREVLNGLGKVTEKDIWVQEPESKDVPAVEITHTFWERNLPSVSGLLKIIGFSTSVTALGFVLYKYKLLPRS

[10] = target: T2, Amine oxidase [flavin-containing] B (Homo sapiens, UniProt P27338); assay: Inhibition of recombinant human MAO-B using p-tyramine as substrate by Amplex-Red MAO assay
T2 sequence (P27338 whole entry): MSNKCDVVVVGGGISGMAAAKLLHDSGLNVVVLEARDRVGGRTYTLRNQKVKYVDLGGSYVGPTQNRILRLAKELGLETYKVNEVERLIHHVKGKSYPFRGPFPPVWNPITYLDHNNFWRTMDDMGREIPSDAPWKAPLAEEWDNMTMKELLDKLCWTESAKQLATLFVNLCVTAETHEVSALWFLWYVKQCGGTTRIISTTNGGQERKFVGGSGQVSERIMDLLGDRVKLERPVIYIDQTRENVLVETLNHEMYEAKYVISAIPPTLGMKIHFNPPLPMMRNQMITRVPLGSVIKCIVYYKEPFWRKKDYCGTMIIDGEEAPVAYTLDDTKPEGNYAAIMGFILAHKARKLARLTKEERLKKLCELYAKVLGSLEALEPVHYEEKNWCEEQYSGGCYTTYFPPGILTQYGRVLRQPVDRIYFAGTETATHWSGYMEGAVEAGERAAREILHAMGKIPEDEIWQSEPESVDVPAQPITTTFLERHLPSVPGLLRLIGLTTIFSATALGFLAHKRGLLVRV

[11] = target: Serine/threonine-protein kinase AKT (Homo sapiens, UniProt P31751+Q9Y243+P31749); assay: Inhibition of AKT (unknown origin) by FRET based Z'-LYTE assay; assay type: protein assay
[12] = Inhibition of equine serum BuChE using butyrylthiocholine iodide as substrate preincubated for 15 mins followed by substrate addition and measured after 2 mins by DTNB reagent based Ellman's method
Bacillus subtilis = assay: Antimicrobial activity against Bacillus subtilis MTCC 121 assessed as bacterial growth inhibition incubated for 24 hrs by well diffusion method; assay type: functional
Staphylococcus aureus = assay: Antimicrobial activity against Staphylococcus aureus MTCC96 assessed as bacterial growth inhibition incubated for 24 hrs by well diffusion method; assay type: functional
Escherichia coli = assay: Antimicrobial activity against Escherichia coli MTCC43 assessed as bacterial growth inhibition incubated for 24 hrs by well diffusion method; assay type: functional
Proteus vulgaris = assay: Antimicrobial activity against Proteus vulgaris assessed as bacterial growth inhibition incubated for 24 hrs by well diffusion method; assay type: functional
Aspergillus flavus = assay: Antifungal activity against Aspergillus flavus NRRL-3357 assessed as reduction in fungal growth by well diffusion method; assay type: functional
Candida albicans = assay: Antifungal activity against Candida albicans assessed as reduction in fungal growth by well diffusion method; assay type: functional
[13] = test system: Mycobacterium tuberculosis; assay: Antimicrobial activity against Mycobacterium tuberculosis assessed as reduction in bacterial growth by Alamar Blue fluorescence assay; assay type: functional, organism-based
[14] = test system: Trypanosoma brucei brucei; assay: Antitrypanosomal activity against Trypanosoma brucei brucei assessed as reduction in parasite viability by resorufin based fluorescence assay; assay type: functional, organism-based
[15] = Cytotoxicity against human HeLa cells assessed as reduction in cell viability; assay type: toxicity, cell-based
Toxoplasma gondii = assay: Antiparasitic activity against Toxoplasma gondii RH type 1 infected in human HFF cells assessed as inhibition of parasite proliferation incubated for 30 hrs by Hoechst-33342, YFP2 and Alexa-488 dye based high content imaging analysis; assay type: functional, organism-based; details: RH type 1, HFF

Acetylcholinesterase, sequence (O42275 whole entry): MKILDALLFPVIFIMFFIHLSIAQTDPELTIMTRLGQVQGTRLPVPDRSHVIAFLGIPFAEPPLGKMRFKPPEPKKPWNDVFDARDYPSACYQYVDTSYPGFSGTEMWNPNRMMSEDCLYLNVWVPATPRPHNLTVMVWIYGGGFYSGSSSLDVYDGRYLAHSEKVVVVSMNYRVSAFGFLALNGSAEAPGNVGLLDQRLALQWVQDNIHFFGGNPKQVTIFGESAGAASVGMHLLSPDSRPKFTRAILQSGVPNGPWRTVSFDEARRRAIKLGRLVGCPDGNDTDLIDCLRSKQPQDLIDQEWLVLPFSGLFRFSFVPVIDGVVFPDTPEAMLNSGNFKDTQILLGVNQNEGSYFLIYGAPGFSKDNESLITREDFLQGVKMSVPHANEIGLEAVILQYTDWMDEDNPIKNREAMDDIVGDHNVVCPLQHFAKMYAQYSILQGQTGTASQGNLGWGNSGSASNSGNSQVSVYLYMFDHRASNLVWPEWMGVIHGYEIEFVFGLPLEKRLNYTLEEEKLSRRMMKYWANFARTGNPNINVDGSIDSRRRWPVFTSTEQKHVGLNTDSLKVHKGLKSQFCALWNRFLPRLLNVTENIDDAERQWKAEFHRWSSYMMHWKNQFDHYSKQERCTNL

Question: Which results are given for `Cn1cc(/C=C2\Oc3ccccc3C2=O)c2ccccc21`?
Answer: EC50 (Schistosoma mansoni): 34 µM; CC50 [1]: > 150 µM

Question: Which Kd [2] does the source give for `O=C(O)c1cc(-c2ccc(/C=C3\Sc4ccccc4C3=O)o2)ccc1Cl` here?
Answer: 12 µM

Question: With `COc1ccc(NC(=O)Oc2cccc(/C=C3\Cc4cc(OC)c(OC)cc4C3=O)c2)cc1` as the compound, how does the IC50 (Acetylcholinesterase) read?
Answer: 21 µM

Question: And the IC50 [3]?
Answer: 310 nM

Question: And the Ratio IC50 [4]?
Answer: 70

Question: For `C=CCn1c(=O)c(/C=C2\Oc3cc(O)cc(O)c3C2=O)cc2cc(C)ccc21`, which MIC (Pseudomonas aeruginosa) is on record?
Answer: 33 µM (≈ 12.4 µg/mL)

Question: For `CC(=O)N1/C(=C\c2ccc(-c3cnc4ccccc4c3)cc2)C(=O)c2ccccc21`, which MIC90 [5] is on record?
Answer: 0.65 µM (≈ 0.254 µg/mL)

Question: And the MIC99 [5]?
Answer: 0.74 µM (≈ 0.289 µg/mL)

Question: And the CC50 [6]?
Answer: 19 nM

Question: With `COc1ccc(OC)c(/C=C2\Oc3cc(O)cc(O)c3C2=O)c1` as the compound, how does the EC50 (Leishmania major [7]) read?
Answer: 190 µM

Question: What about the EC50 (THP-1) of the same compound?
Answer: 350 µM

Question: And the “fold change (FC)” value (Leishmania major [8])?
Answer: 6

Question: Which Ki [9] does the source give for `O=C1/C(=C/c2c3ccccc3cc3ccccc23)Oc2ccccc21` here?
Answer: 110 nM

Question: What about the Ki [10] of the same compound?
Answer: 200 nM

Question: Which IC50 [11] does the source give for `Cc1ccc2c(c1C)C(=O)/C(=C/c1ccccc1)C2` here?
Answer: 66 nM

Question: With `COc1cc2c(cc1OC)C(=O)/C(=C/c1cc[n+](Cc3ccccc3F)cc1)O2` as the compound, how does the IC50 [12] read?
Answer: 1620 nM

Question: For `O=C1/C(=C/c2ccc(Br)cc2)Oc2c1ccc1c2C=CCO1`, which MIC (Bacillus subtilis) is on record?
Answer: 4.4 µM (≈ 1.56 µg/mL)

Question: And the MIC (Staphylococcus aureus)?
Answer: 4.4 µM (≈ 1.56 µg/mL)

Question: What about the MIC (Escherichia coli) of the same compound?
Answer: 4.4 µM (≈ 1.56 µg/mL)

Question: And the MIC (Proteus vulgaris)?
Answer: 4.4 µM (≈ 1.56 µg/mL)

Question: What about the MIC (Aspergillus flavus) of the same compound?
Answer: 18 µM (≈ 6.39 µg/mL)

Question: What about the MIC (Candida albicans) of the same compound?
Answer: 18 µM (≈ 6.39 µg/mL)

Question: For `CCOc1ccc2c(c1)O/C(=C\c1cccc(OCC(=O)OC)c1)C2=O`, which IC50 [13] is on record?
Answer: 4.8 µM

Question: With `O=C1/C(=C/c2cccnc2Cl)Cc2ccccc21` as the compound, how does the IC50 [14] read?
Answer: 550 nM

Question: And the CC50 [15]?
Answer: > 100 µM

Question: For `O=C1/C(=C/c2cn(CC3CCCCC3)c3ccccc23)Oc2cc(O)cc(O)c21`, which IC50 (Toxoplasma gondii) is on record?
Answer: 10 µM
